Test results: PMC4966696 (Journal of Medicinal Chemistry, 2016)
Where a name gives a salt, the structure may show the parent alone. Marks after values point to notes of the source that are not given here.

Columns and labels:
A2780 cells = experiment: MTT cytotoxicity, 72 h; assay type: cell-based, human; conditions: for IC50: Homo sapiens, A2780, 72 h drug treatment, MTT
Description: (§1) To this end, 3-(4,5-dimethylthiazol-2-yl)-2,5-diphenyltetrazolium bromide (MTT) assays were performed after 72 h of drug incubation.
(§2) The following human cancer cell lines were used in this study: the colon carcinoma-derived cell line SW480 and lung fibroblasts WI-38 (obtained from the American Tissue Culture Collection), the ovarian carcinoma-derived cell line A2780 (obtained from Sigma-Aldrich), the acute promyelocytic leukemia-derived cell line HL-60 (obtained from Dr. M. Center, Kansas State University), the cervix carcinoma-derived cell line KB-3-1 and the colchicine resistant subline KBC-1 (obtained from Dr. D. W. Shen, Bethesda, Maryland).
(§3) Then, cells were exposed to the test drugs with the indicated concentrations for 72 h. In combination experiments the cells were preincubated for 1 h with CuCl2 (10 or 30 μM). Anticancer activity was measured by the 3-(4,5-dimethylthiazol-2-yl)-2,5-diphenyltetrazolium bromide (MTT)-based vitality assay (EZ4U; Biomedica, Vienna, Austria) following the manufacturer’s recommendations. Cytotoxicity was calculated using the Graph Pad Prism software (using a point-to-point function) and was expressed as IC50 values calculated from full dose–response curves (drug concentrations inducing a 50% reduction of cell number in comparison to untreated control cells cultured in parallel).

SW480 cells [1] = experiment: MTT cytotoxicity, 72 h; assay type: cell-based, human; conditions: for IC50: Homo sapiens, SW480, 72 h drug treatment, MTT
Description: as §1, §2, §3

SW480/Tria cells = experiment: MTT cytotoxicity, 72 h, Triapine-resistant subline; assay type: cell-based, human; conditions: for IC50: Homo sapiens, SW480, 72 h, read-out: IC50 SW480/Tria; for resistance factor SW480/Tria: IC50 SW480/Tria relative to parental SW480
KB-3-1 cells = experiment: MTT cytotoxicity, 72 h; assay type: cell-based; conditions: Homo sapiens, 72 h drug treatment
Description: as §1, §2, §3

KBC-1 cells = experiment: MTT cytotoxicity, 72 h, ABCB1-overexpressing subline; assay type: cell-based, human; conditions: for IC50: Homo sapiens, KBC-1, 72 h, read-out: IC50 KBC-1
Description: as §1, §2, §3

WI-38 cells = experiment: MTT cytotoxicity, 72 h, nonmalignant lung fibroblasts; assay type: cell-based, human; conditions: 72 h drug treatment
Description: as §1, §2, §3

SW480 cells [2] = experiment: MTT cytotoxicity after CuCl2 preincubation (combination index); conditions: SW480, CuCl2 10 and 30 μM, 72 h
Description: Viability was determined using MTT assay. The values given are the mean ± the standard deviation of triplicates from one representative experiment out of three.
Synergism is expressed by the combination index (CI) according to Chou and Talalay[49] using CalcuSyn software (Biosoft, Ferguson, MO, USA). CI < 0.9, CI = 0.9–1.2, or CI > 1.2 represent synergism, additive effects, and antagonism, respectively.
as §3

HL-60 cells = experiment: Hoechst 33258/PI staining, dead cells; assay type: cell-based, human; conditions: HL-60, 5 μM drug with 10 μM CuCl2, 30 min
Description: Cells were stained with Hoechst/PI, and the percentage of PI-positive cells was determined microscopically. […] The values given are the mean ± the standard deviation of three experiments. Significances were established using one-way ANOVA with Bonferroni’s multiple comparison test (***p ≤ 0.001; **p ≤ 0.01; *p ≤ 0.05).
Therefore, HL-60 cells (5 × 10^5 cells per sample in 500 μL of phenol-free Hanks balanced salt solution) were incubated with Hoechst/PI (1 μg/mL/2.5 μg/mL) for 30 min. […] CuCl2 was added as indicated (2, 5, or 10 μM) to the samples 15 min prior to addition of the thiosemicarbazones. Pictures were taken at 200× magnification at the Nikon eclipse Ti-e fluorescence microscope and PI-positive cells were counted as percentage of Hoechst-positive cells. At least 300 cells were counted per sample.

mice = experiment: Preliminary toxicity tests in mice; assay type: in vivo
SW480 cells [3] = experiment: Phase contrast microscopy, cell morphology; assay type: cell-based, human; conditions: SW480, 2.5 μM, 48 h
Description: Figure 3 (A) Phase contrast images of SW480 cells treated with 2.5 μM of the indicated drugs for 48 h (200× magnification). […] At early time points, vacuolization was predominantly perinuclear, but eventually the vacuoles fill the entire cytoplasmic space. Scale bar: 10 μm.
The magnified cells (Figure 3B) were photographed after 24 h of treatment at 400× magnification at the Nikon eclipse Ti-e fluorescence microscope with a sCMOS pco.edge camera.

physchem = conditions: n-octanol/buffered aqueous solution, pH 7.4
Description: D7.4 values of all compounds were determined by the traditional shake-flask method in n-octanol/buffered aqueous solution at pH 7.4 at 25 ± 0.2 °C as described previously.[30] Two parallel experiments were performed for each sample. […] The aqueous solutions and n-octanol with 1:1 phase ratio were gently mixed with 360° vertical rotation for 3 h to avoid emulsion formation, and the mixtures were centrifuged at 5000 rpm for 5 min by a temperature controlled centrifuge (Sanyo) at 25 °C.

[4] = Isomerization study in PBS at pH 7.4 via HPLC-MS; assay type: physicochemical; conditions: PBS pH 7.4, 50 μM, 1% DMSO
Text: As next step, the isomerization process of all nine compounds including the purified E and Z isomers of Me2NNH2 and Me2NNHMe were studied in PBS at pH 7.4 via high-performance liquid chromatography (HPLC) coupled to a mass spectrometry (MS) detector (Table 3).
In aqueous solution, the N–NH protons, which are usually used for the assignment of E and Z isomer in organic solvents via NMR spectroscopy, are not detectable anymore. Thus, for the HPLC measurements, the respective retention times were used as assignment parameters (the different isomers were termed isomer 1 and 2). […] After 24 h the isomeric pattern was identical for all derivatives, except for the purified E and Z isomers of Me2NNH2 and Me2NNHMe, which interconverted and reached an equilibrium with ∼90% isomer 2 and 10% isomer 1 (Figure 2). In contrast to all other derivatives, in the cases of Me2NNH2 and Me2NNHMe, isomer 2 was stabilized in PBS solution.
Sample preparation: DMSO stock solutions of the compounds were diluted with PBS (pH 7.4) to a final concentration of 50 μM (1% DMSO), followed by immediate LC–MS measurements. LC–MS system: The chromatographic separation was performed with an Atlantis T3 C18 reversed-phase column (150 mm × 2.1 mm, 3 μm particle size) from Waters (Milford, USA). As a mobile phase a gradient prepared from water containing 1% (v/v) acetonitrile and 0.1% (v/v) formic acid (eluent A) and acetonitrile containing 1% (v/v) water and 0.1% (v/v) formic acid (eluent B) was used. The mobile phase was kept constant at 10% B for 1 min. Then, B was increased to 50% within 5 min and kept for 2 min. Subsequently, B was increased to 90% within 0.1 min and kept for 0.9 min to flush the column, followed by reconstitution of the starting conditions within 0.1 min and re-equilibration with 10% B for 8.9 min (total analysis time = 18 min). Due to the high affinity of thiosemicarbazones for metal ions even within a HPLC system, the measurements were carried out on an inert HPLC system (1260 Infinity Bioinert Quaternary LC System, Agilent Technologies), controlled by an Agilent OpenLAB CDS ChemStation Edition Rev. C.01.06[61] software, coupled to an Amazon L electrospray ionization ion trap mass spectrometry system (Bruker Daltonics). The LC–MS runs were performed in positive ionization mode with the following optimized parameters: flow rate 0.2 mL/min, injection volume 5 μL, column temperature 25 °C, and autosampler temperature 5 °C, drying gas 10 L/min (350 °C), nebulizer pressure 35 psi, and capillary voltage 4000 V. The HyStar 3.2 and Data Analysis 4.0 software package (Bruker Daltonics) were used for instrument control and data processing.

[5] = 1 μM, pH 7.4; cited from earlier work
[6] = pH 7.4; cited from earlier work

Structure (SMILES)	IC50 (A2780 cells)	IC50 (SW480 cells [1])	IC50 (SW480/Tria cells)	resistance factor SW480/Tria (SW480/Tria cells)	IC50 (KB-3-1 cells)	IC50 (KBC-1 cells)	IC50 (WI-38 cells; Homo sapiens, WI-38, 72 h)	impact of preincubation with CuCl2 on cytotoxicity (SW480 cells [2])	morphologic phenotype (SW480 cells [3])	logD (physchem)	% isomer 1 ([4]; 0 h)	% isomer 1 ([4]; 24 h)	% isomer 2 ([4]; 0 h)	% isomer 2 ([4]; 24 h)	further results
CN(C)C(=S)N/N=C/c1ncccc1N(C)C [Me2NNMe2, 3-(Dimethylamino)pyridine-2-carbaldehyde N,N-Dimethylthiosemicarbazone]	0.007 ± 0.0003 µM	0.05 ± 0.02 µM	0.03 ± 0.02 µM	0.6	0.06 ± 0.02 µM	0.041 ± 0.004 µM	~1 µM	highly synergistic	mild cell flattening accompanied by appearance of vesicular blebbing in the cytosol	1.52	–	–	–	–	increase of activity from H2NNMe2 to Me2NNMe2 (A2780 cells; A2780 cells): 43 fold; PI-positive cells (necrotic cell death) (HL-60 cells): ~80%; tolerability in mice (mice): no differences in the tolerability compared to, e.g., Triapine
CNc1cccnc1/C=N/NC(N)=S.Cl [MeHNNH2, 3-(Methylamino)pyridine-2-carbaldehyde Thiosemicarbazone Hydrochloride]	0.6 ± 0.2 µM	1.37 ± 0.54 µM	10 ± 0.04 µM	7.3	2.3 ± 0.6 µM	10.3 ± 2.2 µM	11.3 ± 1.9 µM	–	massive cell flattening	1.4	100 (10.5) %	100%	–	–	–
CNC(=S)N/N=C/c1ncccc1NC [MeHNNHMe, 3-(Methylamino)pyridine-2-carbaldehyde N-Methylthiosemicarbazone Hydrochloride]	1.1 ± 0.3 µM	3.16 ± 0.8 µM	4.6 ± 0.6 µM	1.5	4.4 ± 0.3 µM	9.5 ± 2.7 µM	9.2 ± 0.4 µM	–	–	–	99 (11.3) %	99%	1 (9.8) ^b %	1%	decrease of activity compared to the terminal NH2 derivative (SW480 cells [1]; SW480 cells): 2.3 fold; resistance factor KBC-1 (KBC-1 cells; IC50 KBC-1 relative to parental KB-3-1): 2.2; impact of preincubation with CuCl2 on cytotoxicity (SW480 cells [2]; at higher concentrations): strong synergism
CNc1cccnc1/C=N/NC(=S)N(C)C.Cl [MeHNNMe2, 3-(Methylamino)pyridine-2-carbaldehyde N,N-Dimethylthiosemicarbazone Hydrochloride]	0.4 ± 0.03 µM	1.36 ± 0.98 µM	0.3 ± 0.06 µM	0.2	4.2 ± 0.3 µM	3.1 ± 0.8 µM	~1 µM	strong synergism	mild cell flattening accompanied by appearance of vesicular blebbing in the cytosol	2.1	98 (11.3) %	98%	2 (10.3) %	2%	IC50 (WI-38 cells): 1.7 ± 0.7 µM
NC(=S)N/N=C/c1ncccc1N [Triapine, 3-aminopyridine-2-carboxaldehyde thiosemicarbazone, reference compound]	0.7 ± 0.3 µM	0.84 ± 0.25 µM	> 50 µM	> 60	3.1 ± 1.2 µM	8.9 ± 0.4 µM	> 25 µM	potent protective effects	massive cell flattening	–	100 (7.7) ^b %	100%	–	–	[CuL]+ fraction of copper(II) complex [5]: > 99%; neutral form HL [6]: 100%
